Data taken from patent publication US4232014A, “Aminoalkylindans and use as hypotensive agents” (Marion Laboratories, Inc., priority 1979, dated 1980).

Columns and labels:
animals = experiment: Anti-hypertensive effect when administered to animals parenterally or orally; type: in vivo; settings: in words
[1] = test system: Desoxycorticosterone Hypertensive Rats; experiment: Cardiovascular activity (blood pressure and heart rate) in desoxycorticosterone hypertensive rats; type: in vivo, male Charles River rats
[2] = Acute toxicity determination in mice (ALD50, ip); type: in vivo, female Swiss-Webster mice; settings: in vivo, mouse, ip, 24 hours after administration
Method: (§1) Biological Methods--Acute toxicity determinations were performed in female Swiss-Webster mice, 15-24 g. Compounds were administered in aqueous solutions or as suspensions in 1% tragacanth by the intraperitoneal route to groups of three or more mice.

Mice = experiment: Acute toxicity determination in mice (ALD50, ip); type: in vivo, female Swiss-Webster mice; settings: in words, compared with the other compounds of the series
Method: as §1

[3] = test system: Desoxycorticosterone Hypertensive Rats; experiment: Cardiovascular activity (blood pressure and heart rate) in desoxycorticosterone hypertensive rats; type: in vivo, male Charles River rats; settings: 24 hr
Method: The indirect measurements of blood pressure and heart rate were determined in male Charles River rats made hypertensive (systolic blood pressure >159 mm Hg) by subcutaneously implanting a wax-formulated pellet containing 10 mg of desoxycorticosterone acetate. Systolic blood pressure was measured in the caudal arteries of prewarmed (40° C.), unanesthetized, restrained animals by a pneumatic pulse transducer placed distal to an automated tail pressure cuff and was recorded on a physiograph. Heart rate was determined from the amplified pulse waves recorded during the blood pressure measurements. Prior to the actual experiments, animals were accustomed to the measurement handling procedure several times during the preceding weeks.
Control systolic blood pressure and heart rates were determined in a group of usually six hypertensive rats on each day. A compound for evaluation was administered by intraperitoneal injection either in solution or as a suspension at 24 hr. intervals following injection. Mean values of the group for these parameters at a particular measurement period were calculated, and then the mean difference from control, along with its associated standard error, was calculated for each period. The statistical significance of the changes produced by a compound was tested by an analysis of variance and the Newman-Keuls a posteriori test when F was significant. A probability level of 0.05 or less was accepted as a significant change.
All compounds synthesized in this series, except V, were tested at a dosage level of 100 mg/kg. […] Another group of hypertensive rats was injected with 0.9% NaCl in a dose of 1 ml/kg. The latter group was included as a placebo group for the entire study.

[4] = 10 mg/kg ip, solution in distilled water, 1 hr
[5] = 10 mg/kg ip, solution in distilled water, 2 hr
[6] = 10 mg/kg ip, solution in distilled water, 4 hr
[7] = 10 mg/kg ip, solution in distilled water, 24 hr
[8] = 25 mg/kg ip, solution in distilled water, 4 hr
[9] = 100 mg/kg ip, suspension in 1% tragacanth, 1 hr
[10] = 100 mg/kg ip, suspension in 1% tragacanth, 2 hr
[11] = 100 mg/kg ip, suspension in 1% tragacanth, 4 hr
[12] = 100 mg/kg ip, suspension in 1% tragacanth
[13] = 50 mg/kg ip, suspension in 1% tragacanth, 1 hr
[14] = 50 mg/kg ip, suspension in 1% tragacanth, 2 hr
[15] = 50 mg/kg ip, suspension in 1% tragacanth, 4 hr
[16] = 50 mg/kg ip, suspension in 1% tragacanth, 24 hr

| SMILES | Mean change in heart rate from control ± SE [1, 9] | Mean change in systolic blood pressure from control ± SE [1, 9] [mm Hg] | Mean change in heart rate from control ± SE [1, 10] | Mean change in systolic blood pressure from control ± SE [1, 10] [mm Hg] | Mean change in heart rate from control ± SE [1, 11] | Mean change in systolic blood pressure from control ± SE [1, 11] | LD50 at 24 h ([2]; suspension in 1% tragacanth) [mg/kg] | Mean change in heart rate from control ± SE [3, 12] | Mean change in systolic blood pressure from control ± SE [3, 12] [mm Hg] | also measured |
| --- | --- | --- | --- | --- | --- | --- | --- | --- | --- | --- |
| Cc1cc2c(cc1CCN)CCC2 [5-aminoethyl-6-methylindan] |  |  |  |  |  |  |  |  |  | hypotensive properties (animals): has hypotensive properties; anti-hypertensive effect (animals; as base or acid addition salt, animals, parenterally or orally): exert an anti-hypertensive effect |
| Cc1cc2c(cc1CCN)CCC2.Cl [Compound V, 5-Aminoethyl-6-methylindan HCl] |  |  |  |  |  |  |  |  |  | Mean change in heart rate from control ± SE [1, 4]: +32 ± 17 beats per minute; Mean change in systolic blood pressure from control ± SE [1, 4]: -24 ± 8 mm Hg; Mean change in heart rate from control ± SE [1, 5]: +34 ± 14 beats per minute; Mean change in systolic blood pressure from control ± SE [1, 5]: -24 ± 4 mm Hg; Mean change in heart rate from control ± SE [1, 6]: +25 ± 11 beats per minute; Mean change in systolic blood pressure from control ± SE [1, 6]: -15 ± 5 mm Hg; Mean change in heart rate from control ± SE [1, 7]: -4 ± 11 beats per minute; Mean change in systolic blood pressure from control ± SE [1, 7]: -6 ± 4 mm Hg; Mean change in heart rate from control ± SE [1, 8]: +20 ± 21 beats per minute; Mean change in systolic blood pressure from control ± SE [1, 8]: -18 ± 4 mm Hg; Mean change in systolic blood pressure from control ± SE ([1]; 25 mg/kg ip, solution in distilled water, 24 hr): -11 ± 2 mm Hg; LD50 at 24 h ([2]; solution in distilled water): 79 to 89 mg/kg; relative toxicity in the mouse (Mice): relatively more toxic in the mouse; Mean change in heart rate from control ± SE ([3]; 25 mg/kg ip, solution in distilled water): -26 ± 14 beats per minute |
| COc1cc2c(cc1CCNC(=O)c1ccccc1)CCC2 [I, 5-Benzoylaminoethyl-6-methoxyindan] | -20 ± 23 beats per minute | -18 ± 8 | +9 ± 30 beats per minute | -24 ± 7 | -14 ± 18 beats per minute | -12 ± 6 mm Hg | > 1000 | -67 ± 22 beats per minute | -13 ± 4 |  |
| COc1cc2c(cc1CCNC(=O)c1cc(OC)c(OC)c(OC)c1)CCC2 [II, 5-(3,4,5-Trimethoxybenzoyl)aminoethyl-6-methoxyindan] | +23 ± 28 beats per minute | -27 ± 8 | +10 ± 28 beats per minute | -35 ± 13 | +47 ± 29 beats per minute | -12 ± 8 mm Hg | > 1000 | -4 ± 10 beats per minute | -16 ± 4 |  |
| COc1cc2c(cc1CCNC(=O)Cc1ccccc1)CCC2 [III, 5-Phenylacetylaminoethyl-6-methoxyindan] | +13 ± 12 beats per minute | -32 ± 7 | +54 ± 25 beats per minute | -24 ± 5 | +19 ± 21 beats per minute | -21 ± 4 mm Hg | 1000 to 1500 | +61 ± 12 beats per minute | -13 ± 4 |  |
| COc1cc2c(cc1CCNC(=O)Cc1ccc(OC)c(OC)c1)CCC2 [IV, 5-(3,4-Dimethoxyphenylacetyl)aminoethyl-6-methoxyindan] | +23 ± 29 beats per minute | -10 ± 4 | +57 ± 31 beats per minute | -10 ± 2 | +14 ± 12 beats per minute | -19 ± 3 mm Hg | 500 to 1000 | -27 ± 2 beats per minute | -19 ± 4 |  |
| C[C@](N)(Cc1ccc(O)c(O)c1)C(=O)O [Methyldopa, reference compound] |  |  |  |  |  |  |  |  |  | Mean change in heart rate from control ± SE [1, 13]: +106 ± 26 beats per minute; Mean change in systolic blood pressure from control ± SE [1, 13]: -31 ± 4 mm Hg; Mean change in heart rate from control ± SE [1, 14]: +104 ± 28 beats per minute; Mean change in systolic blood pressure from control ± SE [1, 14]: -50 ±4 mm Hg; Mean change in heart rate from control ± SE [1, 15]: +31 ± 39 beats per minute; Mean change in systolic blood pressure from control ± SE [1, 15]: -48 ± 6 mm Hg; Mean change in heart rate from control ± SE [1, 16]: -19 ± 12 beats per minute; Mean change in systolic blood pressure from control ± SE [1, 16]: -16 ± 5 mm Hg; change in mean systolic blood pressure from control levels ([1]; in words, hypertensive rats, reference standards): significant depressions in mean systolic blood pressure from control levels |
| COc1ccc(CC(=O)NCCc2cc3c(cc2C)CCC3)cc1OC [VII, N-(3,4-Dimethoxyphenylacetyl)-5-aminoethyl-6-methylindan] | +43 ± 10 beats per minute | -2 ± 6 | +47 ± 12 beats per minute | -4 ± 9 | +37 ± 15 beats per minute | +2 ± 5 mm Hg | > 1000 | +22 ± 12 beats per minute | -3 ± 7 |  |
| COc1ccc(CNCCc2cc3c(cc2C)CCC3)cc1OC.Cl [VIII, N-(3,4-Dimethoxybenzyl)-5-aminoethyl-6-methylindan hydrochloride] | -55 ± 17 beats per minute | -58 ± 4 | 0 ± 14 beats per minute | -60 ± 7 | +4 ± 8 beats per minute | -47 ± 2 mm Hg | 140 to 178 | -14 ± 10 beats per minute | -17 ± 2 |  |
| Cc1cc2c(cc1CCNC(=O)Cc1ccccc1)CCC2 [VI] | +17 ± 17 beats per minute | -7 ± 7 | +24 ± 11 beats per minute | -2 ± 6 | +23 ± 13 beats per minute | -1 ± 7 mm Hg | > 1000 | +2 ± 17 beats per minute | -3 ± 10 |  |
